Data taken from patent US6037333A, “Microbe-inhibiting compositions” (Trustees of Tufts College, priority 1998, dated 2000).
“Also recorded” adds a separate entry of the source. Where two headings read alike, the source gives them in different places.

Tests used:
[1] = biological target: mannose binding protein (MBP) of Acanthamoeba (Acanthamoeba castellanii, UniProt Q6J288); assay: Solid-phase assay of 35S-labeled Acanthamoeba binding to Man-BSA coated wells; set-up: species or system Acanthamoeba strain MEEI 0184 (A. castellani); conditions: for Inhibition of Acanthamoeba binding to Man-BSA: at 100 mM; for Inhibition of amoebic binding to Man-BSA / affinity of amoebic lectin: no concentration stated
Source text: The Acanthamoeba strain MEEI 0184 (A. castellani based on morphological characteristics) was derived from an infected human cornea and used throughout this study. ATCC strain 30868 should have similar properties. The parasites were axenically cultured in PYG medium. A solid-phase assay characterized the sugar binding properties of the mannose binding protein (MBP) of Acanthamoeba (Z. Yang et al., Infect. Immun. 65:439-445, 1997). Briefly, wells of microtiter plates were coated with bovine serum albumin-α-D-mannopyranosyl phenylisothiocyanate (Man-BSA, 15-25 moles of α-D-mannopyranoside/mole albumin, 0.03 μg/ml, 50μl/well in 0.1 M sodium carbonate buffer, pH 9.6, 4° C. overnight). Nonspecific binding was blocked with 1% BSA in phosphate buffered saline (PBS, 1 hour, room temperature). After adding a 50-μl aliquot of ^35 S-labeled Acanthamoeba (5×10^6 cells/ml in PBS; 1 to 2 cpm/parasite, >95% trophozoites) to each well, the plates were incubated for 2 hours at room temperature. After rinsing the cells with PBS to remove unbound Acanthamoeba, 0.1 ml of 2% sodium dodecyl sulfate (SDS) was added to each well, and the radioactivity in aliquots of solubilized material was determined in a scintillation counter.

Acanthamoeba [2] = assay: Acanthamoeba-induced cytopathic effect (CPE) assay, immortalized corneal epithelial cultures; type: cell-based; conditions: for Inhibition of amoeba-induced CPE: no concentration stated; for inhibition at 310 µM: at 0.31 mM; for inhibition at 50000 µM: at 50 mM
Procedure: Corneal epithelial cells with extended life span were also produced.
(§1) To characterize the role of carbohydrate-mediated host-parasite interactions in the Acanthamoeba-induced cytotoxicity of host cells, in vitro cytopathic assays were performed using both primary and immortalized cultures of corneal epithelium as host cells. Immortalized cells were assayed as confluent cultures in 24-well plates, and primary cells were assayed as confluent cells in 35-mm dishes or 6-well plates.
(§2) The plates were incubated at 37° C. in a CO2 incubator and periodically examined under a phase-contrast microscope for the presence of cell-free plaques in the monolayer for up to 28-30 hours. Control wells contained host cells without the parasites. At the end of the incubation period, the cultures were stained with Giemsa (Diff-Quik, Dade Diagnostic Inc., Aguada, PR). Approximate cell density in each well was estimated by scanning the stained plates in a calibrated, computer-assisted Bio-Image Scanner (Millipore, Ann Arbor, Mich.). Cytopathic effect (CPE) was expressed as percentage of the optical density by the following formula: [formula]
The CPE assays were performed in the SFB media containing one or more saccharides to be tested.
After staining with Giemsa, percent cell loss in each well was calculated based on the optical density in each well.

Acanthamoeba [3] = assay: Acanthamoeba-induced CPE assay, primary cultures of corneal epithelium; type: cell-based; conditions: primary cultures as target cells
Procedure: In vitro cytopathic assays were performed using cell cultures of corneal epithelium as target cells. Primary cell cultures of rabbit corneal epithelium were prepared according to published protocols (M. M. Jumblatt, Invest. Opthalmol. Visual Sci. 24:1139-43, 1983) using rabbit eyes from Pel-Freez Biologicals (N. Panjwani et al., Invest. Opthalmol. Visual Sci. 31:689-695, 1990) (Rogers, AK). Generally, seventy-five eyes were processed at a time. Primary cultures have limited life span and can only be passaged 2 to 3 times without significant alteration in cell morphology.
as §1
as §2, with “The parasites (>95% trophozoites) were rinsed three times in a serum-free Eagle's minimum essential medium supplemented with 0.4% bovine serum albumin (SFB) and aliquots of the parasite suspension (0.2×10^5 to 1×10^6 parasites/ml SFB medium, 300 μl/well for 24-well plates and 500 μl/well for 6-well plates or 35-mm dishes) were added to wells of confluent epithelial cultures which had been rinsed and preincubated in SFB medium for 2 hours. The” for “The”
Primary cultures were less susceptible to amoeba-induced CPE, requiring 1×10^6 parasites/ml to completely destroy the monolayer within 24 hours. This parasite concentration was five times higher than that required to produce the same effect when immortalized cultures were used as target host cells.

proteinases E1, E2 = assay: Zymography with proteinase inhibitors, media conditioned by epithelial cells alone; type: biochemical, rabbit; conditions: inhibitor 1 mM
Procedure: (§3) To characterize the mechanism by which the mannose-mediated host-parasite interactions influence the amoeba-induced cytolysis and/or cytopathic effect, conditioned media obtained by incubating amoebae with primary cultures of corneal epithelium in the presence and absence of α-Man for 6 to 8 hours were analyzed by zymography. Media conditioned by only Acanthamoeba or only epithelial cells were also analyzed. Zymography was performed using separating gels containing 10% acrylamide and 2 mg/ml gelatin, essentially as described by D. E. Kleiner et al. (Anal Biochem. 218:325-329, 1994). Samples were diluted in the electrophoresis sample buffer (U. K. Laemmli, Nature 227:680-685, 1970) without mercaptoethanol and were applied to the gels. After electrophoresis, proteinases separated on the gels were renatured by incubating the gels in 2.5% Triton X-100 in 50 mM Tris-HCl, pH 7.5 to remove SDS. After incubating the gels for 18 hours in a developing buffer (50 mM Tris-HCl, pH 7.5 containing 10 mM CaCl2), the gels were stained with Coomassie brilliant blue. Areas of digestion were visualized as non-staining regions. In some experiments, samples were pre-treated with phenylmethylsulfonyl fluoride (PMSF, 1 mM), an inhibitor of […] for one hour prior to electrophoresis, or 1,10-phenanthroline (1 mM), an inhibitor of metalloproteinases, was added to the developing buffer.

[4] = biological target: proteinases P1, P2, P3, P4; assay: Zymography with proteinase inhibitors, components P1-P4; type: biochemical, Acanthamoeba; conditions: inhibitor 1 mM
Procedure: as §3

[5] = Acanthamoeba, in Oryctolagus cuniculus, read-out: Inhibition of cytopathic effect (% inhib. at indicated conc.)

Sequence of mannose binding protein (MBP) of Acanthamoeba (Q6J288 entry or part of it): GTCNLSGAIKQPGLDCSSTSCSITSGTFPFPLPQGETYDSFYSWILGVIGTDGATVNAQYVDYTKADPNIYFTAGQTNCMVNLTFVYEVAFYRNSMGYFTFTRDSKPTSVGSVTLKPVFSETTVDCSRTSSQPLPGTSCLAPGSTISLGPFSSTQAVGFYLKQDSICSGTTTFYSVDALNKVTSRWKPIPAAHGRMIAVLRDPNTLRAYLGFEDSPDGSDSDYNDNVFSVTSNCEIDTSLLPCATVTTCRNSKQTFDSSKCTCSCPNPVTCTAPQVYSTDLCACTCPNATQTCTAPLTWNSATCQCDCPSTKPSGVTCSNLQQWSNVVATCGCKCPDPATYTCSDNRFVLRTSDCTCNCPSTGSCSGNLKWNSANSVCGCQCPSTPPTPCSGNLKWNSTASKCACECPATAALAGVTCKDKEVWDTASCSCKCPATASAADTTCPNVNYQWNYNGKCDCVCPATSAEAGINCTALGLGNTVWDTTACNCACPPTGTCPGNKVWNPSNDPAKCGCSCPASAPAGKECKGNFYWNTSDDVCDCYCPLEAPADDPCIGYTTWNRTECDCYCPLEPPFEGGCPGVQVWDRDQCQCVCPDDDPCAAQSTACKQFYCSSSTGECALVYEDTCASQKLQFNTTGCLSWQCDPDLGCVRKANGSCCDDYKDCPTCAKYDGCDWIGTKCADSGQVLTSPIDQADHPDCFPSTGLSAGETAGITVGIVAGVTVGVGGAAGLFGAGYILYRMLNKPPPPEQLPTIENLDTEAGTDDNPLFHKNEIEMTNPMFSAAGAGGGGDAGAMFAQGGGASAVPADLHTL

OC1OC[C@@H](O)[C@H](O)[C@@H]1O (stereo partly drawn) [D-lyxose]
Inhibition of Acanthamoeba binding to Man-BSA [1]: did not inhibit
Inhibition of amoebic binding to Man-BSA / affinity of amoebic lectin [1]: lack of inhibitory activity; also recorded: no affinity
Inhibition of amoeba-induced cytopathic effect (Acanthamoeba [2]; at 100 mM): did not inhibit

OCC1OC(OC2C(O)C(CO)OC(OCC3OC(OC4C(O)C(CO)OC(OCC5OC(O)C(O)C(O)C5O)C4O)C(O)C(O)C3O)C2O)C(O)C(O)C1O (stereo not drawn) [Man(α1-3)Man(α1-6)Man-(α1-3)Man(α1-6)Man]
Inhibition of amoeba-induced CPE (Acanthamoeba [3]): inhibited CPE
Inhibition of amoebic binding to Man-BSA / affinity of amoebic lectin [1]: potent inhibitors
Inhibition of amoeba-induced CPE (Acanthamoeba [2]): potent inhibitors

CC(=O)N[C@@H]1C(O)O[C@H](CO)[C@@H](O)[C@@H]1O (stereo partly drawn) [N-acetyl-D-mannosamine]
Inhibition of Acanthamoeba binding to Man-BSA [1]: did not inhibit
Inhibition of amoebic binding to Man-BSA / affinity of amoebic lectin [1]: did not inhibit
Inhibition of amoeba-induced cytopathic effect (Acanthamoeba [2]; at 100 mM): did not inhibit
Inhibition of amoeba-induced CPE (Acanthamoeba [2]): did not inhibit

OC[C@H]1O[C@H](O[C@H]2[C@H](O)[C@@H](CO)OC(O)[C@H]2O)[C@@H](O)[C@@H](O)[C@@H]1O (stereo partly drawn) [Man(α1-3)Man]
Relative inhibitory potency in binding to Man-BSA ([1]; comparator named in the value): three times more potent than the corresponding α-1-6 disaccharide
inhibition at 310 µM (Acanthamoeba [2]; [5]): 91%

OC[C@H]1O[C@H](OC[C@H]2OC(O)[C@@H](O)[C@@H](O)[C@@H]2O)[C@@H](O)[C@@H](O)[C@@H]1O (stereo partly drawn) [Man(α1-6)Man]
inhibition at 310 µM (Acanthamoeba [2]; [5]): 80%

CO[C@H]1O[C@H](CO)[C@@H](O)[C@H](O)[C@H]1O [Methyl-α-D-glucopyranoside]
Inhibition of amoebic binding to Man-BSA / affinity of amoebic lectin [1]: poor inhibitors
inhibition at 100000 µM ([1]; read-out: Inhibition of binding, % at indicated conc.): 40%
inhibition at 50000 µM (Acanthamoeba [2]; [5]): 31%
Inhibition of amoeba-induced CPE (Acanthamoeba [2]): poor inhibitors

CO[C@H]1O[C@H](CO)[C@H](O)[C@H](O)[C@H]1O [methyl-α-D-galactopyranoside]
Inhibition of amoeba-induced CPE (Acanthamoeba [3]): did not inhibit CPE
Inhibition of Acanthamoeba binding to Man-BSA [1]: did not inhibit
Inhibition of amoebic binding to Man-BSA / affinity of amoebic lectin [1]: did not inhibit
Inhibition of amoeba-induced cytopathic effect (Acanthamoeba [2]; at 100 mM): did not inhibit
Inhibition of amoeba-induced CPE (Acanthamoeba [2]): did not inhibit

CO[C@@H]1O[C@H](CO)[C@@H](O)[C@H](O)[C@H]1O [methyl-β-D-glucopyranoside]
Inhibition of Acanthamoeba binding to Man-BSA [1]: did not inhibit
Inhibition of amoeba-induced cytopathic effect (Acanthamoeba [2]; at 100 mM): did not inhibit

OC[C@H]1OC(O)[C@@H](O)[C@H](O)[C@@H]1O (stereo partly drawn) [D-altrose]
Inhibition of Acanthamoeba binding to Man-BSA [1]: did not inhibit
Inhibition of amoebic binding to Man-BSA / affinity of amoebic lectin [1]: not inhibitory
Inhibition of amoeba-induced cytopathic effect (Acanthamoeba [2]): did not inhibit

c1cnc2c(c1)ccc1cccnc12 [1,10-phenanthroline]
Susceptibility of component E1 (93 kD) to inhibitor (proteinases E1, E2): susceptible
Susceptibility of component E2 (63 kD) to inhibitor (proteinases E1, E2): susceptible
Susceptibility of component P1 (230 kD) to inhibitor [4]: resistant
Susceptibility of component P2 (97 kD) to inhibitor [4]: resistant
Susceptibility of component P3 (80 kD) to inhibitor [4]: susceptible
Susceptibility of component P4 (55 kD) to inhibitor [4]: resistant

OC[C@H]1OC(O)[C@@H](O)[C@@H](O)[C@@H]1O (stereo partly drawn) [D-mannose]
inhibition at 5000 µM (Acanthamoeba [2]; [5]): 50%

CC(=O)N[C@H]1C(O)O[C@H](CO)[C@H](O)[C@@H]1O (stereo partly drawn) [N-acetyl-D-galactosamine]
Inhibition of Acanthamoeba binding to Man-BSA [1]: did not inhibit
Inhibition of amoeba-induced cytopathic effect (Acanthamoeba [2]; at 100 mM): did not inhibit

CO[C@@H]1O[C@H](CO)[C@H](O)[C@H](O)[C@H]1O [methyl-β-D-galactopyranoside]
Inhibition of amoeba-induced CPE (Acanthamoeba [3]): did not inhibit CPE
Inhibition of Acanthamoeba binding to Man-BSA [1]: did not inhibit
Inhibition of amoebic binding to Man-BSA / affinity of amoebic lectin [1]: did not inhibit
Inhibition of amoeba-induced cytopathic effect (Acanthamoeba [2]; at 100 mM): did not inhibit
Inhibition of amoeba-induced CPE (Acanthamoeba [2]): did not inhibit

OCC1OC(OC2C(O)C(CO)OC(OCC3OC(O)C(O)C(O)C3O)C2O)C(O)C(O)C1O (stereo not drawn) [Man(α1-3)Man(α1-6)Man]
Inhibition of amoeba-induced CPE (Acanthamoeba [3]): inhibited CPE
Inhibition of amoebic binding to Man-BSA / affinity of amoebic lectin [1]: potent inhibitors
inhibition at 310 µM (Acanthamoeba [2]; [5]): 100%
Inhibition of amoeba-induced CPE (Acanthamoeba [2]): potent inhibitors

C[C@@H]1OC(O)[C@H](O)[C@H](O)[C@H]1O (stereo partly drawn) [L-rhamnose]
Inhibition of Acanthamoeba binding to Man-BSA [1]: did not inhibit
Inhibition of amoeba-induced cytopathic effect (Acanthamoeba [2]; at 100 mM): did not inhibit

O=P(O)(O)OC[C@H]1OC(O)[C@@H](O)[C@@H](O)[C@@H]1O (stereo partly drawn) [D-mannose-6-phosphate]
Inhibition of Acanthamoeba binding to Man-BSA [1]: did not inhibit; also recorded: No inhibition
inhibition at 50000 µM (Acanthamoeba [2]; [5]): 30%
Inhibition of amoeba-induced cytopathic effect (Acanthamoeba [2]; at 100 mM): did not inhibit

OC[C@H]1OC(O)[C@H](O)[C@@H](O)[C@@H]1O (some centres unmarked) [glucose]
Inhibition of amoebic binding to Man-BSA / affinity of amoebic lectin [1]: weak inhibitor

OC[C@@H]1OC(O)[C@H](O)[C@H](O)[C@H]1O (stereo partly drawn) [L-mannose]
Inhibition of Acanthamoeba binding to Man-BSA [1]: did not inhibit
Inhibition of amoeba-induced cytopathic effect (Acanthamoeba [2]): did not inhibit

OC[C@H]1O[C@H](O)[C@@H](O)[C@@H](O)[C@H]1O [α-D-talose]
Inhibition of Acanthamoeba binding to Man-BSA [1]: did not inhibit
Inhibition of amoebic binding to Man-BSA / affinity of amoebic lectin [1]: not inhibitory
Inhibition of amoeba-induced cytopathic effect (Acanthamoeba [2]; at 100 mM): did not inhibit

OC[C@@H](O)[C@@H](O)[C@H](O)[C@H](O)CO [D-mannitol]
Inhibition of Acanthamoeba binding to Man-BSA [1]: did not inhibit
Inhibition of amoebic binding to Man-BSA / affinity of amoebic lectin [1]: did not inhibit
Inhibition of amoeba-induced cytopathic effect (Acanthamoeba [2]; at 100 mM): did not inhibit
Inhibition of amoeba-induced CPE (Acanthamoeba [2]): did not inhibit

C[C@@H]1O[C@@H](O)[C@@H](O)[C@H](O)[C@@H]1O [α-L-Fucose]
Inhibition of amoeba-induced CPE (Acanthamoeba [3]): not inhibitory
Inhibition of amoebic binding to Man-BSA / affinity of amoebic lectin [1]: poor inhibitors; also recorded: weak inhibitor
Inhibition of amoebic binding to Man-BSA / affinity of amoebic lectin ([1]; listed as α-fucose): weak inhibitors
inhibition at 100000 µM (Acanthamoeba [2]; Acanthamoeba, in Oryctolagus cuniculus, at 100 mM, read-out: Inhibition of cytopathic effect (% inhib. at indicated conc.)): 40%
Inhibition of amoeba-induced CPE (Acanthamoeba [2]): poor inhibitors; also recorded: weak inhibitor
